Assays:
Format in all cases: cell-based
EV-A71 VP1 = experiment: Western blot of EV-A71 VP1 level in RD cells; conditions: for reduction of VP1 level (densitometric assay): 50 μM; for EV-A71 VP1 protein level (in words): indicated concentrations
Procedure: (§1) FIGS. 10A-10K. Peptide S78 inhibited EV-A71 replication and propagation. (FIG. 10A) RD cells were pre-treated with peptides S78 or for 2 hours and infected with EV-A71 at the MOI of 10 for 6 hours. Cell lysates were collected for western blot assay. Hsp27 phosphorylation on Ser 15, 78, 82 were detected by specific antibodies. β-Actin were detected as internal control. (FIG. 10B) Densitometric analysis of FIG. 9A. (FIG. 10C) HEK 293T cells were pre-treated with peptides S78 or S78A at the concentration of 25 μM for 2 hours and then co-transfected with Hsp27-WT plasmid (800 ng), pIRES reporter plasmid (200 ng) and 2A^pro-expressing plasmid or 2AC110A-expressing plasmid (200 ng) for 24 h, then the luciferase activity was measured. (FIG. 10D-10E) RD cells were treated with peptides S78 or S78A and then infected with EV-A71. EV-A71 VP1 were detected. (FIG. 10F) RD cells were treated with peptides and then infected with EV-A71 at the MOI of 1 for 12 hours. The EV-A71-induced CPE was captured. (FIG. 10G-10H) Intracellular viral RNA was extracted and quantified by qPCR. (FIG. 10I) Densitometric analysis FIG. 9D-E. (FIG. 10J) RD cells were treated with peptides S78 or and then infected with EV-A71 at the MOI of 1 for 12 hours. Extracellular viral RNA was extracted and quantified by qPCR. (FIG. 10K) Viral titration was calculated by TCID50. The Statistical analyses were carried out using Student's t-test. *: p<0.05, **: p<0.01, ***: p<0.001. Data are expressed as mean ±SD.
FIGS. 11A-11G Inhibition of EV-A71 Protein Translation and Viral Reproduction by peptide S82A. (FIG. 11A) HEK 293T cells were pre-treated with peptides NC, S78, S78A, S82A, or S78-3A at the concentration of 25 μM for 2 hours and then co-transfected with Hsp27-WT plasmid (800 ng), pIRES reporter plasmid (200 ng) and 2A^pro-expressing plasmid for 24 h, then the luciferase activity was measured. (FIG. 11B) RD cells were pre-treated with peptides NC at indicated concentrations for 2 hours and infected with EV-A71 at the MOI of 1 for 9 hours. Intracellular viral RNA was extracted and quantified by qPCR. (FIG. 11C-11E) RD cells were treated with peptides NC, S82A, or S78-3A at indicated concentrations for 2 hours and then infected with EV-A71 at the MOI of 1 for 9 hours. Cell lysates were collected for western blot assay. EV-A71 VP1 were detected. β-Actin was detected as an internal control. (FIG. 11F) Densitometric analysis of the EV-A71 VP1 level in FIG. S7C-E was quantified and normalized with β-Actin using ImageJ. (FIG. 11G) RD cells were treated with peptides S78, S78A, S82A, or S78-3A at the concentration of 25 μM for 2 hours and then infected with EV-A71 at the MOI of 0.1 for 24 hours. Viral titration was calculated. The Statistical analyses were carried out using Student's t-test. *: p<0.05, **: p<0.01, ***: p<0.001. Data are expressed as mean ±SD.
After cell lysis in Nonidet-P40 (NP-40) buffer, the cell lysates were centrifuged, and the concentration was determined by Bradford assay (Bio-Rad). 20 μg of protein was used for 12% SDS-PAGE and transferred onto polyvinylidene fluoride membrane (PVDF) (GE, MA, USA). Following 5% bovine serum albumin (BSA) blocking for 1 hrs, the membrane was incubated with antibodies (1:1000) against Hsp27 (sc-13132), pHsp27-Ser15 (ab76313), pHsp27-Ser78 (ADI-SPA-523), pHsp27-Ser82 (ab155987), VP1 (GTX132339), β-Actin (sc-47778), hnRNP A1 (sc-32301), or GAPDH (sc-32233) overnight in 4° C. After secondary antibodies (HRP-conjugated Affinipure Goat Anti-Mouse IgG(H+L), SA00001-1, and HRP-conjugated Affinipure Goat Anti-Rabbit IgG(H+L), SA00001-2) incubation for 1 hrs, the protein was visualized with a chemiluminescence reagent (PerkinElmer, MA, USA) on Bio-Rad Chemidoc Imaging System. The protein bands were quantified by densitometry with ImageJ if necessary.

RD cells = experiment: CCK-8 assay; conditions: data not shown
Procedure: (§2) RD cells were seeded in 96-well cell plates (1×10^4/well) and placed in the 5% CO2 incubator for 1 day. Then the cells were treated with peptides for 2 days. 90 μl medium and 10 μl of CCK-8 (BioSharp, BS350B) was added to each well of the 96-well plate, which were incubated at 37° C. for 1 h. A microplate reader (BioTek, Synergy H1) was used to measure the OD value of each well at 450 nm.

EV-A71 IRES activity = experiment: Dual-luciferase IRES reporter assay in HEK 293T cells pre-treated with peptides; conditions: 25 μM for 2 hours, 24 h (FIG. 11A)
Procedure: as §1
(§3) FIGS. 11A-11G Inhibition of EV-A71 Protein Translation and Viral Reproduction by peptide S82A. (FIG. 11A) HEK 293T cells were pre-treated with peptides NC, S78, S78A, S82A, or S78-3A at the concentration of 25 μM for 2 hours and then co-transfected with Hsp27-WT plasmid (800 ng), pIRES reporter plasmid (200 ng) and 2A^pro-expressing plasmid for 24 h, then the luciferase activity was measured. (FIG. 11B) RD cells were pre-treated with peptides NC at indicated concentrations for 2 hours and infected with EV-A71 at the MOI of 1 for 9 hours. Intracellular viral RNA was extracted and quantified by qPCR. […] EV-A71 VP1 were detected. β-Actin was detected as an internal control. (FIG. 11F) Densitometric analysis of the EV-A71 VP1 level in FIG. S7C-E was quantified and normalized with β-Actin using ImageJ. […] Viral titration was calculated. […] Data are expressed as mean ±SD.
HEK 293T cells were seeded in 24-wells, and then co-transfected with plasmids to simultaneously express 2A^pro (200 ng), pIRES reporter (200 ng), and the wild-type Hsp27 or its mutants (800 ng). […] The Renilla luciferase (RLuc) and Firefly luciferase (FLuc) activity were determined by using a dual-luciferase reporter assay (Promega) according to the manufacturer's instructions in a Lumat LB9507 bioluminometer.

[1] = test system: Hsp27 and hnRNP A1 redistribution in RD cells; experiment: Immunofluorescence colocalization assay of Hsp27/hnRNP A1 redistribution, RD cells with or without EV-A71 infection; conditions: 25 μM for 2h; for redistribution of Hsp27 and hnRNP A1 in EV-A71-infected RD cells: EV-A71 MOI 40 for 6h
Procedure: (§4) The cells on coverslips were infected with EV-A71 at the multiplicity of infection (MOI) of 40 for 6 hrs to assure the high efficiency of viral infection. Then the cells were fixed by 4% paraformaldehyde for 20 min, permeabilized by 0.5% Triton X-100 for 15 min, blocked with 5% BSA for 2 hrs, and stained by incubation with anti-Hsp27 (GTX101145) and anti-hnRNP A1 (sc-32301) antibody, then with Alexa Fluor 488 conjugated anti-rabbit antibody and Alexa Fluor 594 conjugated anti-mouse antibody respectively. After washing four times with 0.2% Triton X-100, the nuclei were stained with DAPI or Hoechst for 5 min. The images were captured by a Nikon A1HD25 High speed and Large Field of View Confocal Microscope. Colocalization analysis was conducted using the JACoP-plugin of the extended ImageJ version Fiji. The M1 colocalization coefficient was computed to illustrate the colocalization levels of Hsp27 and hnRNP A1 overlapped with Hoechst.
Hsp27 is predominantly located in the cytoplasm, however, stress (e.g., heat shock, virus infection) can induce partial redistribution of Hsp27 from the cytoplasm to the nucleus, concomitantly with its phosphorylation. We thus postulated that the cellular redistribution of Hsp27 may be associated with its phosphorylation upon EV-A71 infection. To verify the hypothesis, RD cells were with SB203580 at 0, 2, 4, and 8 μM for 2 h, and the cells were infected with EV-A71 for 6 h. […] The colocalization of Hsp27 and DAPI, which stands for the level of redistribution of Hsp27, was also quantified. The colocalization coefficient M1 was computed as the fraction of Hsp27 colocalized with DAPI in the total Hsp27 area using the JACoP-plugin in FIJI.
We hypothesized that peptides S78 and S82A could interfere with Ser78 phosphorylation while peptides S78A (Ser78 replaced by Ala78) would not affect the phosphorylation of Ser78 of Hsp27. […] RD cells were pre-treated with peptide S78, S78A or S82A at the concentrations of 25 μM for 2h and then infected with or without EV-A71 at an MOI of 40 for 6h.

EV-A71 = experiment: Virus titration (TCID50); conditions: 25 μM for 2 hours, EV-A71 MOI 0.1 for 24 hours, RD cells (FIG. 11G)
Procedure: as §1, with “The Statistical analyses were carried out using Student's t-test. *: p<0.05, **: p<0.01, ***: p<0.001.” left out
as §3, with “(FIG. 11B) RD cells were pre-treated with peptides NC at indicated concentrations for 2 hours and infected with EV-A71 at the MOI of 1 for 9 hours.” left out, “±SD. […]” for “±SD.”

CCK-8 assay = conditions: human; RD cells, data not shown
Procedure: as §2

[2] = test system: 2Apro-induced relocalization of Hsp27 and hnRNP A1 in RD cells; experiment: Immunofluorescence colocalization assay of 2Apro-induced relocalization of Hsp27 and hnRNP A1; conditions: 25 μM for 2 hours, transfected with 2Apro for 24 hours
Procedure: FIGS. 9A-9B Peptide S78 blocks the 2A^pro-induced relocalization of Hsp27 and hnRNP A1. RD cells on the coverslips were treated with peptides (S78, S78A, and S82A) at the concentration of 25 μM for 2 hours, and then transfected with 2A^pro for 24 hours. The cells were fixed and stained with anti-Hsp27and anti-hnRNPAI, followed by Alexa Fluor 488-conjugated anti-rabbit antibody and Alexa Fluor 594-conjugated anti-mouse antibody. The nuclei were stained with Hoechst. The images were captured by Nikon A1HD25 Confocal Microscope. The JACoP-plugin of the extended ImageJ version Fiji was used to compute the M1 colocalization coefficient, in which (FIG. 9A) is M1 colocalization coefficient for the fraction of Hsp27 in Hoechst and (FIG. 9B) is the M1 colocalization coefficient for the fraction of hnRNP A1 in Hoechst. Statistical analyses were carried out using Student's t-test. *: p<0.05, **: p<0.01, ***: p<0.001. Data are expressed as mean ±SD.
as §4

Row | Substance | reduction of VP1 level (densitometric assay) (EV-A71 VP1) | EV-A71 VP1 protein level (in words) (EV-A71 VP1) | CC50 (in words) (RD cells) | effect on viral IRES activity (in words) (EV-A71 IRES activity) | redistribution of Hsp27 and hnRNP A1 in EV-A71-infected RD cells [1] | effect on viral titer (in words) (EV-A71) | CC50 at 2 days (CCK-8 assay) | 2Apro-induced relocalization of Hsp27 and hnRNP A1 [2] | localization of Hsp27 and hnRNP A1 in mock RD cells ([1]; without EV-A71)
1 | Ac-RKKRRQRRRAYSRAAAAQLSS-NH2 [S78-3A] | about 60% | much weaker | high | mildly decreased | partially suppressed | mildly decreased | – | – | –
2 | Ac-RKKRRQRRRAYSRALSRQLAS-NH2 [S82A] | > 90% | a little bit weaker inhibition | – | – | dramatically blocked | – | > 600 µM | almost completely blocked | not affected
